# From patent US20260344668A1, “PHENYLPYRAZOLE COMPOUND, AND PLANT DISEASE CONTROL METHOD” (priority 2022, published 2026)
# Legend:
# [1] = test system: Phakopsora pachyrhizi; assay: Test Example 15 Control Test Against Soybean Rust Fungus (spore germination, 96 well titer plate); type: cell-based; conditions: treatment concentration 1 ppm, 23° C., several hours
# Procedure: (§1) The term of “non-treated well” in Test Example 4, Test Example 5, and Test Example 6 represents a well wherein a test was carried out under the same conditions as those described in each Test Example except for dispensing DMSO instead of a diluted solution with DMSO comprising the Present compound. Also, the term of “non-treated” in Test Examples 15 to 17 represents a test which was carried out under the same conditions as those described in each Test Example except for dispensing DMSO instead of a diluted solution with DMSO comprising the Present compound. Also, the term of “non-treated leaf disk” in Test Example 7 represents a leaf disk wherein a test was carried out under the same conditions as those described in the Test Example except for dispensing DMSO instead of a diluted solution with DMSO comprising the Present compound. Also, the term of “non-treated” in Test Example 10 and Test Example 11 means that a diluted solution with water of a formulation comprising the Present compound was not sprayed.
# The Present compound was diluted with DMSO to obtain a diluted solution containing 150 ppm of the compound, and 1 μL of the diluted solution was dispensed into a titer plate (96 well), and thereto was then dispensed 149 μL of an aqueous suspension (1.0×10^4/mL) of spores of Phakopsora pachyrhizi to which spores of Phakopsora pachyrhizi were suspended in advance. This plate was cultured at 23° C. for several hours, and then germinated spores of Phakopsora pachyrhizi were counted. As a result, when the treatment concentration was 1 ppm, the number of germinated spores in each well comprising any one of the Present compound 1, 11, 17, 18, 20, 23, 30, 33, 34, 35, 36, 37, 38, 39, 40, 41, 42, 43, 44, 46, 47, 48, 49, 50, 51, 52, 53, 54, 55, 56, 57, 58, 62, 63, 64, 65, 66, 67, 68, 69, 70, 71, 72, 73, 74, 75, 76, 77, 78, 79, 80, 81, 82, 83, 84, 85, 86, 87, 88, 89, 90, 91, 92, 93, 94, 95, 96, 97, 98, 99, 100, 101, or 102 as the test compound was 50% or less relative to the number of germinated spores in the non-treated well.
# [2] = test system: Phakopsora pachyrhizi; assay: Test Example 11 Control Test Against Soybean Rust (pot test, spraying before inoculation); type: in vivo; conditions: 200 ppm foliage spray, soybeans (Kurosengoku), inoculated after 2 to 5 days
# Procedure: as §1
# A plastic pot was filled with soil, soybeans (cultivar: Kurosengoku) were seeded thereto, and cultured in a greenhouse for 10 to 14 days. The Present compound 9, 10, 11, 13, 14, 15, 17, 18, 20, 21, 22, 23, 26, 27, 33, 34, 35, 36, 37, 38, 39, 40, 41, 42, 43, 44, 46, 47, 53, 54, 55, 56, 57, 58, 66, 67, 68, 69, 70, 71, 73, 74, 75, 76, 77, 78, 79, 80, 81, 82, 83, 84, 85, 86, 87, 88, 89, 90, 91, 92, 93, 94, 95, 96, 97, 98, 99, 100, 101, or 102 formulated according to the method described in the Formulation Example 1 was mixed with water in such a way that the concentration thereof was 200 ppm, and the resulting mixture was sprayed to foliage of the above soybeans so as to adequately adhere onto the surfaces of leaves of the above soybeans. After spraying the mixture, the soybeans were air-dried. After 2 to 5 days, an aqueous suspension of spores of Phakopsora pachyrhizi was inoculated by spraying to the soybeans. After the inoculation, the soybeans were placed in a greenhouse at 23° C. in daytime and at 20° C. in nighttime under a humid condition for 1 to 2 day(s), then cultured in a greenhouse for 12 days, and then a lesion area was investigated. As a result, the lesion area in the soybeans treated with each of the above Present compound was 30% or less relative to the lesion area in the non-treated soybeans.
# [3] = test system: Cochliobolus miyabeanus; assay: Test Example 6 Control Test Against Rice Brown Spot Fungus (96 well titer plate growth); type: cell-based; conditions: 1 μL of 150 ppm DMSO solution + 150 μL YB liquid medium, 23° C., 3 days, absorbance at 550 nm
# Procedure: as §1
# Each of the Present compound 17, 33, 36, 37, 39, 40, 41, 42, 43, 44, 48, 49, 50, 51, 52, 53, 62, 68, 69, 70, 71, 76, 77, 79, 80, 81, 82, 83, 84, or 97 was diluted with DMSO to obtain a diluted solution containing 150 ppm of each compound, and 1 μL of the diluted solution was dispensed into a titer plate (96 well), and thereto was then dispensed 150 μL of a YB liquid medium to which spores of Cochliobolus miyabeanus were inoculated in advance. This plate was cultured at 23° C. for 3 days, thereby allowing Cochliobolus miyabeanus to undergo proliferation, and the absorbance at 550 nm of each well of the titer plate was then measured to determine a degree of growth of Cochliobolus miyabeanus. As a result, the degree of growth in the well treated with each of the above Present compounds was 50% or less relative to the degree of growth in the non-treated well.
# [4] = test system: soybean rust fungus (Phakopsora pachyrhizi) having an amino acid substitution of F129L in a mitochondrial cytochrome b protein; assay: Test Example 7 Control Test Against Soybean Rust (leaf disk); type: in vivo; conditions: 200 ppm, 10 μL per soybean leaf disk (cultivar: Kurosengoku), inoculated after 1 day
# Procedure: as §1
# A true leaf of a soybean (cultivar: Kurosengoku) was cut into a diameter of 1 cm to prepare each leaf disk. To each well of a 24 well microplate was dispensed 1 mL of an agar medium (agar concentration 1.2%), and then one of said leaf disk was placed on the agar medium in each well. To a mixture of Sorpol (registered trademark) 1200KX (0.5 μL), DMSO (4.5 μL), and xylene (5 μL) was added a DMSO solution (20 μL) comprising a test compound (10000 ppm), and the resulting mixture was mixed. The resulting mixture was diluted with ion exchange water to prepare a mixture comprising a prescribed concentration of the test compound.
# The resulting mixture was sprayed into each leaf disk at a ratio of 10 μL per leaf disk. After 1 day, an aqueous suspension of spores of soybean rust fungus (Phakopsora pachyrhizi) having an amino acid substitution of F129L in a mitochondrial cytochrome b protein (1.0×10^5/mL) was inoculated by spraying on each leaf disk. After the inoculation, the microplate was placed into an artificial climate chamber (Lighting: 6 hours, Lights-out: 18 hours, Temperature: 23° C., Humidity: 60%). After 1 day, the leaf disks were air-dried until water droplets on the surfaces of the leaf disks disappeared, and the microplate was placed into the artificial climate chamber again for 12 days. Then, lesion area of soybean rust was investigated. As a result, when the prescribed concentration was 200 ppm, each lesion area of leaf disk treated with any one of the Present compound 9, 10, 11, 13, 14, 15, 16, 17, 18, 20, 32, 33, 34, 35, 36, 37, 38, 39, 40, 42, 43, 44, 47, 48, 49, 50, 51, 52, 53, 55, 56, 57, 58, 62, 63, 64, 65, 66, 67, 68, 69, 70, 71, 73, 74, 75, 76, 77, 78, 79, 80, 81, 82, 83, 84, 85, 86, 87, 88, 89, 90, 91, 92, 93, 94, 95, 96, 97, 98, 99, 100, 101, or 102 as the test compound was 30% or less relative to the lesion area of non-treated leaf disk.
SMILES,number of germinated spores relative to the non-treated well [1] [%],lesion area relative to the lesion area in the non-treated soybeans [2] [%],degree of growth relative to the degree of growth in the non-treated well [3] [%],lesion area relative to the lesion area of non-treated leaf disk [4] [%]
O=S(=O)(c1cccc(F)c1)n1ccc(-c2cc(F)c(Br)c(F)c2)n1 [compound 17],≤ 50,≤ 30,≤ 50,≤ 30
O=S(=O)(c1cccs1)n1ccc(-c2cc(F)c(Br)c(F)c2)n1 [compound 33],≤ 50,≤ 30,≤ 50,≤ 30
O=S(=O)(c1ccoc1)n1ccc(-c2cc(F)c(Br)c(F)c2)n1 [compound 36],≤ 50,≤ 30,≤ 50,≤ 30
O=S(=O)(c1ccco1)n1ccc(-c2cc(F)c(Br)c(F)c2)n1 [compound 37],≤ 50,≤ 30,≤ 50,≤ 30
O=S(=O)(c1cccs1)n1ccc(-c2ccc(C(F)(F)F)c(F)c2)n1 [compound 39],≤ 50,≤ 30,≤ 50,≤ 30
O=S(=O)(c1cccs1)n1ccc(-c2ccc(Br)c(F)c2)n1 [compound 40],≤ 50,≤ 30,≤ 50,≤ 30
CSc1ccc(-c2ccn(S(=O)(=O)c3cccs3)n2)cc1 [compound 41],≤ 50,≤ 30,≤ 50,–
O=S(=O)(c1cccs1)n1ccc(-c2ccc(C3CC3)cc2)n1 [compound 42],≤ 50,≤ 30,≤ 50,≤ 30
Cc1ccc(-c2ccn(S(=O)(=O)c3cccs3)n2)cc1 [compound 43],≤ 50,≤ 30,≤ 50,≤ 30
O=[N+]([O-])c1ccc(-c2ccn(S(=O)(=O)c3cccs3)n2)cc1 [compound 44],≤ 50,≤ 30,≤ 50,≤ 30
O=S(=O)(c1ccco1)n1ccc(-c2ccc(Br)c(F)c2)n1 [compound 50],≤ 50,–,≤ 50,≤ 30
O=S(=O)(c1ccoc1)n1ccc(-c2ccc(Br)cc2)n1 [compound 51],≤ 50,–,≤ 50,≤ 30
O=S(=O)(c1ccoc1)n1ccc(-c2ccc(Br)c(F)c2)n1 [compound 52],≤ 50,–,≤ 50,≤ 30
O=S(=O)(c1cccnc1)n1ccc(-c2ccc(Br)c(F)c2)n1 [compound 53],≤ 50,≤ 30,≤ 50,≤ 30
O=S(=O)(c1cccs1)n1ccc(-c2ccc3c(c2)CCC3)n1 [compound 62],≤ 50,–,≤ 50,≤ 30
